Source: patent US20260027103A1, “PHARMACEUTICAL COMPOSITIONS COMPRISING A QUINOLONE COMPOUND FOR IRRITABLE BOWEL SYNDROME” (OTSUKA PHARMACEUTICAL CO., LTD., priority 2022, published 2026)

How the values were obtained:
histamine = assay: Urine histamine level by ELISA in RS model; type: in vivo, Sprague Dawley Rats; conditions: rat, 2.5 mg/kg PO, day 7 (4 days post treatment), p<0.01 vs RS group, FIG. 6
Method: (§1) Sprague Dawley Rats were submitted to a 2h restraint in a plastic cylinder daily for 7 consecutive days as described above. In control group, the rats were remained in an individual cage, undisturbed, throughout the experiment.
Urine samples were collected every day after the restraint. A plastic dish was placed underneath restraint tube and the urine sample was collected. It is immediately transferred into a tube and stored at-800C until further analysis. Histamine was measured with the Histamine ELISA Kit ((CAT #: D751012, BBI) according to the manufacturer's instructions as follows.
Calculate the required number of slats in advance, and take out the kit 30 minutes before the test and restore it to room temperature. • 2. Add 50 μL of standard working liquid and test sample to each reaction hole. The standard needs to be re-drilled. 50 μL of biotin-labeled histamine antibody working solution was added to each reaction well immediately, and the plate was sealed and incubated at 37° C. for 45 min. • 3. […] OD value was measured with 450 nm wavelength of enzyme label instrument. • 9. Draw a standard curve with the concentration of standard substance as the horizontal coordinate and absorbance as the vertical coordinate. • 10. Statistical significance was either calculated by two-tailed T-test (visceral sensitivity on day 3) or one-way ANOVA using Dunnett's multiple comparison. […]

[1] = system: restraint stress (RS) rat model; assay: Visceromotor response to colorectal distention in RS model; type: in vivo, Sprague Dawley Rats; conditions: 2.5 mg/kg PO, day 7 (4 days post dose), p<0.05 vs RS group, FIG. 5
Method: as §1
Colonic distension—A polyethylene balloon (3 cm long, 1.5 cm max. diameter) was secured to tubing attached to a blood pressure meter to be used to perform colonic distension. The balloon was lubricated and placed into the rat's distal colon so that the tip of the balloon was 2 cm proximal to the anus. Using the blood pressure meter distension device, rats were restrained in a plastic containment device and allowed to acclimate for 10 min before testing. The rats received phasic distension (0-100 mmHg in 5-mmHg ascending increments) of the colon until the first contraction of the testicles, tail or abdominal musculature occurred. This visualization was performed by three independent observers. […] Compliance of the colon was not measured given the rapid distension protocol used in this study. The colonic distensions were repeated three times with 5-min interstimulus intervals and the mean pressures at the nociceptive threshold were recorded for each rat.
Statistical significance was either calculated by two-tailed T-test (visceral sensitivity on day 3) or one-way ANOVA using Dunnett's multiple comparison. P<0.05 was considered statistically significant.

[2] = system: restraint stress (RS) rat model; assay: Restraint stress (RS) rat model: body weight, food intake, fecal pellet output; type: in vivo, Sprague-Dawley (SD) rats
From the text: Male Sprague-Dawley (SD) rats, weighting 200-250 g were purchased from Charles River Laboratories Beijing and housed in an SPF grade animal facility of OSRI in individual ventilated cages (IVC), with 3 rats per cage. All animals were maintained with a 12-hour light/dark cycle and had free access to rodent chow and water. All animal study procedures were in accordance with Animal Welfare Regulations and approved by the Institutional Animal Care and Use Committee (IACUC) of OSRI.
Rats (from group #2 and group #3) were submitted to a 2-hour restraint in a plastic cylinder daily in the PM for 10 consecutive days (D1 to D10). Rats from the control group (group #1) remained in their individual cages, undisturbed throughout the entire experiment. After 3 days of repeated RS modeling, from D4 to D10, the rats from group #2 and group #3 were treated in the morning (4h ahead of PM restraint) with vehicle (5% AG) and the test substance (2.5 mg/kg) respectively for 7 consecutive days. Fecal pellet output was used to estimate distal colonic motility as a validated index (Hong S et al., Gut 2009, 58:202-210). During the 2-hour restraint period, the rat's fecal pellet output was collected and counted, same for the rats in control group during the same 2-hour mock observation period.

SMILES: Cc1c(-c2cnc(N)c(C#N)c2)c(F)cc2c(=O)c(C(=O)O)cn(C3CC3)c12 [OPS-2071, 1-cyclopropyl-6-fluoro-1,4-dihydro-8-methyl-7-(2-amino-3-cyano-5-pyridyl)-4-oxo-3-quinoline-carboxylic acid]
- urine histamine level (histamine): decreased
- visceral sensitivity (visceromotor response to colorectal distention, mmHg) [1]: a decrease in visceral sensitivity
- body weight / body weight change (BWC) % in RS-IBS model ([2]; 2.5 mg/kg PO QD for 7 days from D4, group #3 vs. RS vehicle group #2, FIGS. 1 and 2): body weight drop caused by restraint stress is improved
- fecal pellet output during 2-hour restraint ([2]; 2.5 mg/kg PO from day 4, group #3 vs. group #2, FIG. 3): a decrease of the fecal pellet output was observed
- food intake (appetite) in RS model ([2]; 2.5 mg/kg PO, monitored from 3 days post treatment initiation, group #3 vs. group #2): protective effect on decreased appetite
